The target in one experiment is T1, human V2 receptor (Homo sapiens, UniProt P30518).
T1 construct: expressed in transfected cells; host or cells: CHO K1 (ATCC) expressing firefly luciferase under a CRE-responsive promoter
Description: Cellular in vitro assay for determining vasopressin receptor activity, V2 receptor cell line (CHO, CRE-luciferase). The experiment is classed as cell-based. As to conditions: CHO cell line transfected with human V2 receptor; [Arg8]-vasopressin at EC50 concentration, 3 hours; read-out: IC50 hV2.

For a further experiment, the target named is T2, human V1a receptor (Homo sapiens, UniProt P37288).
T2 construct: expressed in transfected cells; host or cells: CHO K1 (ATCC), also stably transfected with a modified aequorin
Description: Cellular in vitro assay for determining vasopressin receptor activity, V1a receptor cell line (CHO, aequorin luminescence). The following applies: for IC50: CHO cell line transfected with human V1a receptor, [Arg]-vasopressin at EC50 concentration, read-out: IC50 hV1a; for ratio IC50 hV2/hV1a: selectivity ratio IC50 hV2 / IC50 hV1a. In kind it is cell-based. The method, boiled down: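 Cells were plated the day before in medium containing 5 μg/ml coelenterazine and kept at 37° C. Compounds at various concentrations were then added for 10 minutes. Next, [Arg]-vasopressin at EC50 was applied and light output recorded at once, yielding IC50.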

T1 sequence (P30518 whole entry): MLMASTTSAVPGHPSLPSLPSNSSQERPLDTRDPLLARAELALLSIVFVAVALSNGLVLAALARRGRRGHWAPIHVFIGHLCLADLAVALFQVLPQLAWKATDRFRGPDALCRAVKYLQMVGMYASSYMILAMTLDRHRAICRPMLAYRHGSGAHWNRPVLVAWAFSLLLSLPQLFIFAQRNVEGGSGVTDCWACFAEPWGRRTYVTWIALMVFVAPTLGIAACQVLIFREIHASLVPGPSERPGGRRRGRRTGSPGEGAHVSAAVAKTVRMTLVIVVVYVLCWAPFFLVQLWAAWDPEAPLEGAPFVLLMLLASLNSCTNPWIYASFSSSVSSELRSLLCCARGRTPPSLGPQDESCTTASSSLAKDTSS
T2 sequence (P37288 whole entry): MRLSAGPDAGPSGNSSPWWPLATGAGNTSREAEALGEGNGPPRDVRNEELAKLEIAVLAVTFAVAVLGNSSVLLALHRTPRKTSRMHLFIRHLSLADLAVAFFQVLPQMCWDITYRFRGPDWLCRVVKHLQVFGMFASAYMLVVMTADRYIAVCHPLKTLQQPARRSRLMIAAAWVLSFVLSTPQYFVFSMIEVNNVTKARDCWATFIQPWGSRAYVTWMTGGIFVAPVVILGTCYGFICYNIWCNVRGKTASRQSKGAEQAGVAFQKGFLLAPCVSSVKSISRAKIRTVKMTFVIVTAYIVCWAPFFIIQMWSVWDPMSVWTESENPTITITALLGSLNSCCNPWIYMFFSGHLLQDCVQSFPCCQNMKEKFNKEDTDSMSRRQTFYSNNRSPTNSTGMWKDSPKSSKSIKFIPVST

Usually IC50 stands for the midpoint of a concentration-inhibition curve. For `Cc1ccc(F)c(NC(=O)c2ccccc2-n2cnc(Cn3nc(-c4ccc(Cl)cc4)n(C[C@H](O)C(F)(F)F)c3=O)n2)c1` [Example 307, 2-[3-({3-(4-Chlorophenyl)-5-oxo-4-[(2S)-3,3,3-trifluoro-2-hydroxypropyl]-4,5-dihydro-1H-1,2,4-triazol-1-yl}methyl)-1H-1,2,4-triazol-1-yl]-N-(2-fluoro-5-methylphenyl)benzamide], the IC50 came to 175 nM at human V2 receptor and 1.65 nM on human V1a receptor. Further, the “ratio IC50 hV2/hV1a” value at human V1a receptor is 106.1.

Turning to `O=C(NN1CCOCC1)c1ccccc1-n1cnc(Cn2nc(-c3ccc(Cl)cc3)n(C[C@H](O)C(F)(F)F)c2=O)n1` [Example 308, 2-[3-({3-(4-Chlorophenyl)-5-oxo-4-[(2S)-3,3,3-trifluoro-2-hydroxypropyl]-4,5-dihydro-1H-1,2,4-triazol-1-yl}methyl)-1H-1,2,4-triazol-1-yl]-N-(morpholin-4-yl)benzamide], the IC50 at human V2 receptor came to 3300 nM; at human V1a receptor, 17.5 nM. Also, the “ratio IC50 hV2/hV1a” value on human V1a receptor stood at 188.6.

On to `Cc1ccc(NC(=O)c2ccccc2-n2cnc(Cn3nc(-c4ccc(Cl)cc4)n(C[C@H](O)C(F)(F)F)c3=O)n2)c(F)c1` [Example 309, 2-[3-({3-(4-Chlorophenyl)-5-oxo-4-[(2S)-3,3,3-trifluoro-2-hydroxypropyl]-4,5-dihydro-1H-1,2,4-triazol-1-yl}methyl)-1H-1,2,4-triazol-1-yl]-N-(2-fluoro-4-methylphenyl)benzamide], for which, on human V2 receptor, the IC50 came to 116 nM. At human V1a receptor, the IC50 turned out to be 1.9 nM and the “ratio IC50 hV2/hV1a” value amounted to 61.3.

`O=C(Nc1ccc(F)cc1)c1ccccc1-n1cnc(Cn2nc(-c3ccc(Cl)cc3)n(C[C@H](O)C(F)(F)F)c2=O)n1` [Example 310, 2-[3-({3-(4-Chlorophenyl)-5-oxo-4-[(2S)-3,3,3-trifluoro-2-hydroxypropyl]-4,5-dihydro-1H-1,2,4-triazol-1-yl}methyl)-1H-1,2,4-triazol-1-yl]-N-(4-fluorophenyl)benzamide]: the half-inhibitory concentration (IC50) on human V2 receptor came out at 215 nM; at human V1a receptor it was 2.6 nM. The “ratio IC50 hV2/hV1a” value on human V1a receptor is 82.7.

With `O=C(c1ccccc1-n1cnc(Cn2nc(-c3ccc(Cl)cc3)n(C[C@H](O)C(F)(F)F)c2=O)n1)N1CCSCC1` [Example 311, 5-(4-Chlorophenyl)-2-({1-[2-(thiomorpholin-4-ylcarbonyl)phenyl]-1H-1,2,4-triazol-3-yl}methyl)-4-[(2S)-3,3,3-trifluoro-2-hydroxypropyl]-2,4-dihydro-3H-1,2,4-triazol-3-one], the half-maximal inhibitory concentration (IC50) at human V2 receptor was 1250 nM. Also, on human V1a receptor, the IC50 is 1.85 nM and the “ratio IC50 hV2/hV1a” value is listed as 675.7.

For the compound `Nc1cccc(NC(=O)c2ccccc2-n2cnc(Cn3nc(-c4ccc(Cl)cc4)n(C[C@H](O)C(F)(F)F)c3=O)n2)n1` [Example 312, N-(6-Aminopyridin-2-yl)-2-[3-({3-(4-chlorophenyl)-5-oxo-4-[(2S)-3,3,3-trifluoro-2-hydroxypropyl]-4,5-dihydro-1H-1,2,4-triazol-1-yl}methyl)-1H-1,2,4-triazol-1-yl]benzamide], the concentration for half-maximal inhibition (IC50) on human V2 receptor was determined as 135 nM. Moreover, at human V1a receptor, the half-maximal inhibitory concentration (IC50) was found to be 6.85 nM and the “ratio IC50 hV2/hV1a” value was 19.7.

For `Cc1ccncc1NC(=O)c1ccccc1-n1cnc(Cn2nc(-c3ccc(Cl)cc3)n(C[C@H](O)C(F)(F)F)c2=O)n1` [Example 313, 2-[3-({3-(4-Chlorophenyl)-5-oxo-4-[(2S)-3,3,3-trifluoro-2-hydroxypropyl]-4,5-dihydro-1H-1,2,4-triazol-1-yl}methyl)-1H-1,2,4-triazol-1-yl]-N-(4-methylpyridin-3-yl)benzamide], the IC50 at human V2 receptor is 915 nM. Besides, at human V1a receptor, the IC50 was 4.15 nM and the “ratio IC50 hV2/hV1a” value was found to be 220.5.

With `CCN(CC)C(=O)c1ccccc1-n1cnc(Cn2nc(-c3ccc(Cl)cc3)n(C[C@H](O)C(F)(F)F)c2=O)n1` [Example 314, 2-[3-({3-(4-Chlorophenyl)-5-oxo-4-[(2S)-3,3,3-trifluoro-2-hydroxypropyl]-4,5-dihydro-1H-1,2,4-triazol-1-yl}methyl)-1H-1,2,4-triazol-1-yl]-N,N-diethylbenzamide], the concentration for half-maximal inhibition (IC50) on human V2 receptor was 510 nM. Besides, on human V1a receptor, the IC50 was determined as 2.15 nM and the “ratio IC50 hV2/hV1a” value stood at 237.2.

On to `O=C(NCc1ccco1)c1ccccc1-n1cnc(Cn2nc(-c3ccc(Cl)cc3)n(C[C@H](O)C(F)(F)F)c2=O)n1` [Example 315, 2-[3-({3-(4-Chlorophenyl)-5-oxo-4-[(2S)-3,3,3-trifluoro-2-hydroxypropyl]-4,5-dihydro-1H-1,2,4-triazol-1-yl}methyl)-1H-1,2,4-triazol-1-yl]-N-(furan-2-ylmethyl)benzamide], for which the half-maximal inhibitory concentration (IC50) on human V2 receptor was 155 nM. In addition, at human V1a receptor, the IC50 came to 4.15 nM and the “ratio IC50 hV2/hV1a” value is recorded as 37.3.

As to `O=C(NC1CCC1)c1ccccc1-n1cnc(Cn2nc(-c3ccc(Cl)cc3)n(C[C@H](O)C(F)(F)F)c2=O)n1` [Example 316, 2-[3-({3-(4-Chlorophenyl)-5-oxo-4-[(2S)-3,3,3-trifluoro-2-hydroxypropyl]-4,5-dihydro-1H-1,2,4-triazol-1-yl}methyl)-1H-1,2,4-triazol-1-yl]-N-cyclobutylbenzamide], the concentration for half-maximal inhibition (IC50) on human V2 receptor came to 255 nM. Also, on human V1a receptor, the IC50 was determined as 1.75 nM and the “ratio IC50 hV2/hV1a” value stood at 145.7.

Regarding `O=C(Nc1c(F)cc(F)cc1F)c1ccccc1-n1cnc(Cn2nc(-c3ccc(Cl)cc3)n(C[C@H](O)C(F)(F)F)c2=O)n1` [Example 317, 2-[3-({3-(4-Chlorophenyl)-5-oxo-4-[(2S)-3,3,3-trifluoro-2-hydroxypropyl]-4,5-dihydro-1H-1,2,4-triazol-1-yl}methyl)-1H-1,2,4-triazol-1-yl]-N-(2,4,6-trifluorophenyl)benzamide], the IC50 at human V2 receptor was 285 nM. Further, on human V1a receptor, the half-inhibitory concentration (IC50) worked out at 2.3 nM and the “ratio IC50 hV2/hV1a” value came out at 123.9.

For the compound `O=C(NCC1CCCCC1)c1ccccc1-n1cnc(Cn2nc(-c3ccc(Cl)cc3)n(C[C@H](O)C(F)(F)F)c2=O)n1` [Example 318, 2-[3-({3-(4-Chlorophenyl)-5-oxo-4-[(2S)-3,3,3-trifluoro-2-hydroxypropyl]-4,5-dihydro-1H-1,2,4-triazol-1-yl}methyl)-1H-1,2,4-triazol-1-yl]-N-(cyclohexylmethyl)benzamide], the 50% inhibitory concentration (IC50) at human V2 receptor is 920 nM. Besides, at human V1a receptor, the IC50 amounted to 14.5 nM and the “ratio IC50 hV2/hV1a” value came to 63.4.

Regarding `CCCNC(=O)c1ccccc1-n1cnc(Cn2nc(-c3ccc(Cl)cc3)n(C[C@H](O)C(F)(F)F)c2=O)n1` [Example 320, 2-[3-({3-(4-Chlorophenyl)-5-oxo-4-[(2S)-3,3,3-trifluoro-2-hydroxypropyl]-4,5-dihydro-1H-1,2,4-triazol-1-yl}methyl)-1H-1,2,4-triazol-1-yl]-N-propylbenzamide], on human V2 receptor, the 50% inhibitory concentration (IC50) is 102 nM. Moreover, at human V1a receptor, the half-maximal inhibitory concentration (IC50) amounted to 1.35 nM and the “ratio IC50 hV2/hV1a” value was determined as 75.9.

`CC1CCC(NC(=O)c2ccccc2-n2cnc(Cn3nc(-c4ccc(Cl)cc4)n(C[C@H](O)C(F)(F)F)c3=O)n2)CC1` (stereo partly drawn) [Example 321, 2-[3-({3-(4-Chlorophenyl)-5-oxo-4-[(2S)-3,3,3-trifluoro-2-hydroxypropyl]-4,5-dihydro-1H-1,2,4-triazol-1-yl}methyl)-1H-1,2,4-triazol-1-yl]-N-(4-methylcyclohexyl)benzamide]: the half-maximal inhibitory concentration (IC50) came out at 570 nM at human V2 receptor and 13 nM at human V1a receptor. The “ratio IC50 hV2/hV1a” value at human V1a receptor turned out to be 43.8.

Regarding `CC(C)(C)CNC(=O)c1ccccc1-n1cnc(Cn2nc(-c3ccc(Cl)cc3)n(C[C@H](O)C(F)(F)F)c2=O)n1` [Example 322, 2-[3-({3-(4-Chlorophenyl)-5-oxo-4-[(2S)-3,3,3-trifluoro-2-hydroxypropyl]-4,5-dihydro-1H-1,2,4-triazol-1-yl}methyl)-1H-1,2,4-triazol-1-yl]-N-(2,2-dimethylpropyl)benzamide], the IC50 on human V2 receptor was 275 nM. Also, at human V1a receptor, the half-inhibitory concentration (IC50) was 2.65 nM and the “ratio IC50 hV2/hV1a” value is 103.8.

On to `Cc1ccccc1NC(=O)c1ccccc1-n1cnc(Cn2nc(-c3ccc(Cl)cc3)n(C[C@H](O)C(F)(F)F)c2=O)n1` [Example 323, 2-[3-({3-(4-Chlorophenyl)-5-oxo-4-[(2S)-3,3,3-trifluoro-2-hydroxypropyl]-4,5-dihydro-1H-1,2,4-triazol-1-yl}methyl)-1H-1,2,4-triazol-1-yl]-N-(2-methylphenyl)benzamide], for which the IC50 turned out to be 70.5 nM at human V2 receptor and 2.05 nM at human V1a receptor. At human V1a receptor, the “ratio IC50 hV2/hV1a” value was determined as 34.4.

For `CC(C)N(C(=O)c1ccccc1-n1cnc(Cn2nc(-c3ccc(Cl)cc3)n(C[C@H](O)C(F)(F)F)c2=O)n1)C(C)C` [Example 324, 2-[3-({3-(4-Chlorophenyl)-5-oxo-4-[(2S)-3,3,3-trifluoro-2-hydroxypropyl]-4,5-dihydro-1H-1,2,4-triazol-1-yl}methyl)-1H-1,2,4-triazol-1-yl]-N,N-di(propan-2-yl)benzamide], the IC50 at human V2 receptor amounted to 1650 nM. Also, at human V1a receptor, the half-maximal inhibitory concentration (IC50) turned out to be 14 nM and the “ratio IC50 hV2/hV1a” value was 117.9.

As for `O=C(NCC1CC1)c1ccccc1-n1cnc(Cn2nc(-c3ccc(Cl)cc3)n(C[C@H](O)C(F)(F)F)c2=O)n1` [Example 325, 2-[3-({3-(4-Chlorophenyl)-5-oxo-4-[(2S)-3,3,3-trifluoro-2-hydroxypropyl]-4,5-dihydro-1H-1,2,4-triazol-1-yl}methyl)-1H-1,2,4-triazol-1-yl]-N-(cyclopropylmethyl)benzamide], the half-inhibitory concentration (IC50) at human V2 receptor stood at 120 nM. On human V1a receptor, the half-inhibitory concentration (IC50) came out at 1.01 nM and the “ratio IC50 hV2/hV1a” value is reported as 118.8.

(Values after patent US11173151B2, “Substituted triazole derivatives and uses thereof” (BAYER AKTIENGESELLSCHAFT, priority 2017, dated 2021).)
